Assay results from patent publication US8138168B1 (Takeda Pharmaceutical Company Limited, priority 2007, dated 2012).

Molecular target: T1, Recombinant human renin (Homo sapiens, UniProt P00797)
T1 construct: isolate the active form (residues 67-406); made in house; host or cells: FreeStyle 293-F cells (transient expression of pcDNA3.1(+)/hREN)
T1 sequence (P00797 67-406): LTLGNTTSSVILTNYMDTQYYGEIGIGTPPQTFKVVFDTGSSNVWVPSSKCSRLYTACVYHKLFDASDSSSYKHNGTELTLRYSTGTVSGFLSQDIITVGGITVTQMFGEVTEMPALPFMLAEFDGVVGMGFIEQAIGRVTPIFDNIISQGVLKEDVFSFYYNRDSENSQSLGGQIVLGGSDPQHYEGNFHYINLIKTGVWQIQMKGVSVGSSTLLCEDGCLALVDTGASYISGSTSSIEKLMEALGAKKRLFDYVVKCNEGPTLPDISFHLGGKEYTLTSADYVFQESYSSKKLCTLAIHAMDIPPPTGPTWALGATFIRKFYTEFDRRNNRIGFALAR
Assay: In vitro enzymatic activity assay of renin inhibitors (fluorogenic peptide substrate)
Assay type: biochemical
Details: read-out: IC50 of Exemplified Compounds Against Renin
How it was run: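 Recombinant human renin (3 nM final) pre-incubated 10 min at 37 °C with compounds in pH 7.4 Hepes/EDTA/DTT/0.1 mg/mL BSA/Brij35 buffer (optionally plus 2% BSA), 5% DMSO final; fluorogenic QXL520/HiLyteFluo488 peptide substrate added.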

SMILES	IC50
N[C@H](CCc1ccccc1)CC(=O)N1CCCC(c2nc3ccccc3[nH]2)C1 (stereo partly drawn) [Compound 32, (3R)-1-(3-(1H-benzo[d]imidazol-2-yl)piperidin-1-yl)-3-amino-5-phenylpentan-1-one]	> 1000 nM
O=C(NCc1ccccc1)N1CCCC(c2nc3ccccc3[nH]2)C1 (stereo not drawn) [Compound 3]	> 1000 nM
COCCCn1c([C@@H]2CCCN(C(=O)C[C@H](N)Cc3ccc4ccccc4c3)C2)nc2cccc(Cl)c21 [Compound 97, (R)-3-amino-1-((R)-3-(7-chloro-1-(3-methoxypropyl)-1H-benzo[d]imidazol-2-yl)piperidin-1-yl)-4-(naphthalen-2-yl)butan-1-one]	< 100 nM
COCCCn1c([C@@H]2CCCN(C(=O)C[C@H](N)Cc3ccc(-c4ccc(C(=O)NCCOC)c(F)c4)cc3)C2)nc2ccccc21 [Compound 191, 4′-((R)-2-Amino-4-((R)-3-(1-(3-methoxypropyl)-1H-benzoldlimidazol-2-yl)piperidin-1-yl)-4-oxobutyl)-3-fluoro-N-(2-methoxyethyl)biphenyl-4-carboxamide]	< 100 nM
COCCCn1c([C@@H]2CCCN(C(=O)C[C@H](N)CNC(=O)c3ccc(-c4ccccc4F)o3)C2)nc2ccccc21 [Compound 260, N-((S)-2-amino-4-((R)-3-(1-(3-methoxypropyl)-1H-benzo[d]imidazol-2-yl)piperidin-1-yl)-4-oxobutyl)-5-(2-fluorophenyl)furan-2-carboxamide]	< 100 nM
COCCCn1c([C@@H]2CCCN(C(=O)C[C@H](N)Cc3ccc(-c4ccncc4)cc3)C2)nc2ccccc21 [Compound 126, (R)-3-amino-1-((R)-3-(1-(3-methoxypropyl)-1H-benzo[d]imidazol-2-yl)piperidin-1-yl)-4-(4-(pyridin-4-yl)phenyl)butan-1-one]	< 100 nM
COCCCn1c([C@@H]2CCCN(C(=O)C[C@H](N)Cc3ccc(-c4ccc(NC(=O)NC5CC5)cc4)cc3)C2)nc2ccccc21 [Compound 171, 1-(4′-((R)-2-Amino-4-((R)-3-(1-(3-methoxypropyl)-1H-benzo[d]imidazol-2-yl)piperidin-1-yl)-4-oxobutyl)biphenyl-4-yl)-3-cyclopropylurea]	< 100 nM

Now from value to compound:

IC50	SMILES
100 to 1000 nM	COCCCn1c([C@@H]2CCCN(C(=O)C[C@H](N)CNC(=O)c3cccc4ccccc34)C2)nc2ccccc21 [Compound 311, N-((S)-2-amino-4-((R)-3-(1-(3-methoxypropyl)-1H-benzo[d]imidazol-2-yl)piperidin-1-yl)-4-oxobutyl)-1-naphthamide]
100 to 1000 nM	COCCCn1c([C@@H]2CCCN(C(=O)C[C@H](N)Cc3ccc(Br)cc3)C2)nc2ccccc21 [Compound 91, (R)-3-amino-4-(4-bromophenyl)-1((R)-3-(1-(3-methoxypropyl)-1H-benzo[d]imidazol-2-yl)piperidin-1-yl)butan-1-one]
< 100 nM	COCCCn1c([C@@H]2CCCN(C(=O)C[C@H](N)Cc3ccc(-c4cncnc4)cc3)C2)nc2ccccc21 [Compound 149, (R)-3-Amino-1-((R)-3-(1-(3-methoxypropyl)-1H-benzo[d]imidazol-2-yl)piperidin-1-yl)-4-(4-(pyrimidin-5-yl)phenyl)butan-1-one]
> 1000 nM	COCCCn1c([C@@H]2CCCN(C(=O)[C@@H]3CN(S(=O)(=O)c4ccc(C#N)cc4Cl)C[C@H]3N)C2)nc2ccccc21 [Compound 391, 4-((3S,4R)-3-amino-4-((R)-3-(1-(3-methoxypropyl)-1H-benzo[d]imidazol-2-yl)piperidine-1-carbonyl)pyrrolidin-1-ylsulfonyl)-3-chlorobenzonitrile]
> 1000 nM	COCCCn1c([C@@H]2CCCN(C(=O)[C@@H]3CN(C(=O)c4cccc(OC)c4)C[C@H]3N)C2)nc2ccccc21 [Compound 421, ((3R,4S)-4-amino-1-(3-methoxybenzoyl)pyrrolidin-3-yl)((R)-3-(1-(3-methoxypropyl)-1H-benzo[d]imidazol-2-yl)piperidin-1-yl)methanone]
